Patent US10221162B2, “Triazole agonists of the APJ receptor” (priority 2015, dated 2019)

Legend:
[1] = test system: naive Sprague Dawley rat hearts; experiment: Langendorff isolated perfused rat heart (ex vivo contractility and relaxation); conditions: Langendorff apparatus, as a function of concentration
[2] = test system: heart failure rat model; experiment: In vivo cardiac contractility in heart failure (MI) rat model; conditions: heart failure rats, acute administration for 30 min, result in words
Method: Male Lewis rats (Charles River, USA) at 2-3 months of age were used for the study. […] APJ agonists were administered dose dependently acutely for a period of 30 min.
The interaction between […] (ACE2) and Apelin biology is complicated. To investigate the interaction between the Apelin-APJ and ACE signalling pathways, we examined the improvement in cardiac function with APJ small molecule agonists in the presence of ACE inhibitor captopril in heart failure rats in vivo.

SMILES | left ventricular dP/dtmax (load independent cardiac contractility) [1] | left ventricular dP/dtmin (load independent cardiac relaxation) [1] | cardiac contractility as measured by dP/dt [2]
COc1cccc(OC)c1-n1c(NS(=O)(=O)[C@@H](C)[C@H](O)c2ncc(C)cn2)nnc1-c1cccc(C)n1 [Example 99.0, (1R,2S)-N-(4-(2,6-dimethoxyphenyl)-5-(6-methylpyridin-2-yl)-4H-1,2,4-triazol-3-yl)-1-hydroxy-1-(5-methylpyrimidin-2-yl)propane-2-sulfonamide] | increases load independent cardiac contractility | increases load independent cardiac relaxation | increase in cardiac contractility
COc1cccc(OC)c1-n1c(NS(=O)(=O)[C@@H](C)[C@H](C)c2ncc(C)cn2)nnc1-c1cncc(C)c1 [Example 263.0, (2S,3R)—N-(4-(2,6-dimethoxyphenyl)-5-(5-methylpyridin-3-yl)-4H-1,2,4-triazol-3-yl)-3-(5-methylpyrimidin-2-yl)butane-2-sulfonamide] | increases load independent cardiac contractility | increases load independent cardiac relaxation | increase in cardiac contractility
